In patent US20240174723A1, “STAPLED ANTIMICROBIAL PEPTIDES (STAMPS) AND USES THEREOF” (Lytica Therapeutics, Inc., priority 2021, published 2024):
Values after ≈ are worked out from the molar mass of the structure shown. Positions of bridges follow the written chain, without caps; N, C: chain ends. Non-standard residues stand in square brackets, D forms with d. Residues, ends and D or L forms follow the SMILES beside them. S5 = C=CCCC[C@](C)(N)C(=O)O; Dap = NC[C@H](N)C(=O)O

Legend:
E. coli = assay type: cell-based, Escherichia coli
Protocol: (§1) Antimicrobial Activity Assay: The following microbroth dilution protocol was adapted from CLSI to determine the minimum inhibitory concentration (MIC) of StAMPs. Briefly, Mueller-Hinton broth (MHB) or cation-adjusted Mueller-Hinton broth (MHB II) was prepared and autoclaved. Then, a colony of bacterial cells was picked and grown overnight in broth at 37° C. and then diluted and allowed to grow again for 3-4 hours. Serial dilutions of peptide stocks in water (10 μl) were prepared using clear round-bottom polypropylene 96-well plates. Then 90 μl of bacteria in broth was added to give a final inoculum of 5×10^5 CFU/ml. The plates were then covered with porous tape to reduce evaporation and incubated for 20-24 hours at 37° C. The MIC was the minimum peptide concentration at which no visible bacterial growth was observed.
(§2) Renal toxicity was measured after 90 minutes of incubation, while liver toxicity was measured after 48 hours of incubation with StAMPs. N/A=not tested. The following apply to all peptides (i.e., StAMPs) listed in Tables A-C: Crosslinks (X^1—X^2 and X^3—X^4): (alk); N-terminus: —NH2; C-terminus: amidated with —NH2; counterion: Cl^−. The following apply to all peptides (i.e., StAMPs) listed in Table D: Crosslinks (X^1—X^2 and X^3—X^4): (alk); N-terminus: —NH2; C-terminus: as shown in table; counterion: Cl^−.

P. aeruginosa = assay type: cell-based, Pseudomonas aeruginosa
Protocol: as §1, §2
StAMP Micelle Formulation: DSPE-MPEG(2000) was suspended in buffered saline at 50-100 mg/mL overnight. StAMP stock solutions at 5-20 mg/mL in buffered saline were prepared and equal volumes of micelle and StAMP stock solution were mixed at the desired StAMP:Lipid ratio. Suspensions were allowed to sit for 5-10 minutes at room temperature before being used in in vitro and in vivo assays. […]

K. pneumoniae = assay type: cell-based, Klebsiella pneumoniae
Protocol: as §1, §2

S. aureus = assay type: cell-based, Staphylococcus aureus
Protocol: as §1, §2

in vitro = assay type: cell-based; conditions: human, Inhibitory Concentration at 50% Cytotoxicity (IC50) Human Liver Cells (HepG2)
Protocol: Cell culture: RPTEC were maintained in MEM media supplemented with growth factors. HEPG2 cell line was maintained in Eagle's Minimum Essential Medium (EMEM) supplemented with fetal bovine serum to a final concentration of 10%.
48 hours cytotoxicity assay: Cells were plated in a 96-well format, and after 4 hour incubation to allow attachment, serial dilutions of StAMPs from a 5 mg/mL water stock, or vehicle, were then added to the cells in a final volume of 100 μl. After incubating at 37° C. for 48 hours, 100 μl of CellTiter-Glo® reagent was added to the cells, and the plates were incubated 10 minutes at room temperature. Luminescence was then measured on a microplate reader.
as §2

A. baumannii = assay type: cell-based, Acinetobacter baumannii
Protocol: as §1, §2

| Minimum Inhibitory Concentration (MIC) E. coli (E. coli) | Minimum Inhibitory Concentration (MIC) P. aeruginosa (P. aeruginosa) | Minimum Inhibitory Concentration (MIC) K. pneumoniae (K. pneumoniae) | Minimum Inhibitory Concentration (MIC) S. aureus (S. aureus) | Minimum Inhibitory Concentration (MIC) A. baumannii (A. baumannii) | Structure (SMILES) | IC50 at 48 hours (in vitro) |
| --- | --- | --- | --- | --- | --- | --- |
| 1 µg/mL | 1 µg/mL | 32 µg/mL | >64 µg/mL | 1 µg/mL | CC(C)[C@@H]1NC(=O)[C@@](C)(NC(=O)[C@H](C)NC(=O)[C@H](CCCCN)NC(=O)CNC(=O)[C@H](Cc2ccccc2)NC(=O)[C@H](CCCCN)NC(=O)[C@H](CCCCN)NC(=O)[C@H](CCCCN)NC(=O)[C@H](CCCCN)NC(=O)[C@H](CN)NC(=O)[C@]2(C)CCCC=CCCC[C@](C)(NC(=O)CN)C(=O)NCC(=O)N[C@@H](CCCCN)C(=O)N[C@@H](Cc3ccccc3)C(=O)N2)CCCC=CCCC[C@@](C)(C(=O)N[C@@H](C)C(=O)N[C@@H](CCCCN)C(=O)N[C@@H](CCCCN)C(N)=O)NC(=O)[C@H](CCC(=O)O)NC(=O)[C@H](CO)NC1=O [compound 88] (H-G[S5]GKF[S5][Dap]KKKKFGKA[S5]VSE[S5]AKK-NH2; staple 2-6, 16-20) | 168 µg/mL (≈ 65.8 µM) |
| 4 µg/mL | 8 µg/mL | 8 µg/mL | >64 µg/mL | 2 µg/mL | CC(C)[C@@H]1NC(=O)[C@@](C)(NC(=O)[C@H](C)NC(=O)[C@H](CCCCN)NC(=O)CNC(=O)[C@H](Cc2ccccc2)NC(=O)[C@H](CN)NC(=O)[C@H](CCCCN)NC(=O)[C@H](CCCCN)NC(=O)[C@H](CCCCN)NC(=O)[C@H](CCCCN)NC(=O)[C@]2(C)CCCC=CCCC[C@](C)(NC(=O)CN)C(=O)NCC(=O)N[C@@H](CCCCN)C(=O)N[C@@H](Cc3ccccc3)C(=O)N2)CCCC=CCCC[C@@](C)(C(=O)N[C@@H](C)C(=O)N[C@@H](CCCCN)C(=O)N[C@@H](CCCCN)C(N)=O)NC(=O)[C@H](CCC(=O)O)NC(=O)CNC1=O [compound 49] (H-G[S5]GKF[S5]KKKK[Dap]FGKA[S5]VGE[S5]AKK-NH2; staple 2-6, 16-20) |  |
| 4 µg/mL | 8 µg/mL | 16 µg/mL | >64 µg/mL | 2 µg/mL | CC(C)[C@@H]1NC(=O)[C@@](C)(NC(=O)[C@H](C)NC(=O)[C@H](CCCCN)NC(=O)CNC(=O)[C@H](Cc2ccccc2)NC(=O)[C@H](CCCCN)NC(=O)[C@H](CN)NC(=O)[C@H](CCCCN)NC(=O)[C@H](CCCCN)NC(=O)[C@H](CCCCN)NC(=O)[C@]2(C)CCCC=CCCC[C@](C)(NC(=O)CN)C(=O)NCC(=O)N[C@@H](CCCCN)C(=O)N[C@@H](Cc3ccccc3)C(=O)N2)CCCC=CCCC[C@@](C)(C(=O)N[C@@H](C)C(=O)N[C@@H](CCCCN)C(=O)N[C@@H](CCCCN)C(N)=O)NC(=O)[C@H](CCC(=O)O)NC(=O)CNC1=O [compound 48] (H-G[S5]GKF[S5]KKK[Dap]KFGKA[S5]VGE[S5]AKK-NH2; staple 2-6, 16-20) |  |
| 2 µg/mL | 4 µg/mL | 8 µg/mL | >64 µg/mL | 2 µg/mL | CC(C)[C@@H]1NC(=O)[C@@](C)(NC(=O)[C@H](C)NC(=O)[C@H](CCCCN)NC(=O)CNC(=O)[C@H](Cc2ccccc2)NC(=O)[C@H](CCCCN)NC(=O)[C@H](CCCCN)NC(=O)[C@H](CCCCN)NC(=O)[C@H](CCCCN)NC(=O)[C@H](CCCCN)NC(=O)[C@]2(C)CCCC=CCCC[C@](C)(NC(=O)CN)C(=O)NCC(=O)N[C@@H](CCCCN)C(=O)N[C@@H](Cc3ccccc3)C(=O)N2)CCCC=CCCC[C@@](C)(C(=O)N[C@@H](C)C(=O)N[C@@H](CCCCN)C(=O)N[C@@H](CN)C(N)=O)NC(=O)[C@H](CCC(=O)O)NC(=O)CNC1=O [compound 52] (H-G[S5]GKF[S5]KKKKKFGKA[S5]VGE[S5]AK[Dap]-NH2; staple 2-6, 16-20) |  |
| 2 µg/mL | 4 µg/mL | 6 µg/mL | >64 µg/mL | 2 µg/mL | CC(C)[C@@H]1NC(=O)[C@@](C)(NC(=O)[C@H](C)NC(=O)[C@H](CCCCN)NC(=O)CNC(=O)[C@H](Cc2ccccc2)NC(=O)[C@H](CCCCN)NC(=O)[C@H](CCCCN)NC(=O)[C@H](CCCCN)NC(=O)[C@H](CN)NC(=O)[C@H](CCCCN)NC(=O)[C@]2(C)CCCC=CCCC[C@](C)(NC(=O)CN)C(=O)NCC(=O)N[C@@H](CCCCN)C(=O)N[C@@H](Cc3ccccc3)C(=O)N2)CCCC=CCCC[C@@](C)(C(=O)N[C@@H](C)C(=O)N[C@@H](CCCCN)C(=O)N[C@@H](CCCCN)C(N)=O)NC(=O)[C@H](CCC(=O)O)NC(=O)CNC1=O [compound 47] (H-G[S5]GKF[S5]K[Dap]KKKFGKA[S5]VGE[S5]AKK-NH2; staple 2-6, 16-20) |  |
| 2 µg/mL | 4 µg/mL | 4 µg/mL | >64 µg/mL | 2 µg/mL | CC(C)[C@@H]1NC(=O)[C@@](C)(NC(=O)[C@H](C)NC(=O)[C@H](CCCCN)NC(=O)CNC(=O)[C@H](Cc2ccccc2)NC(=O)[C@H](CCCCN)NC(=O)[C@H](CCCCN)NC(=O)[C@H](CCCCN)NC(=O)[C@H](CCCCN)NC(=O)[C@H](CCCCN)NC(=O)[C@]2(C)CCCC=CCCC[C@](C)(NC(=O)CN)C(=O)NCC(=O)N[C@@H](CCCCN)C(=O)N[C@@H](Cc3ccccc3)C(=O)N2)CCCC=CCCC[C@@](C)(C(=O)N[C@@H](C)C(=O)N[C@@H](CN)C(=O)N[C@@H](CCCCN)C(N)=O)NC(=O)[C@H](CCC(=O)O)NC(=O)CNC1=O [compound 51] (H-G[S5]GKF[S5]KKKKKFGKA[S5]VGE[S5]A[Dap]K-NH2; staple 2-6, 16-20) |  |
| 4 µg/mL | 8 µg/mL | 8 µg/mL | >64 µg/mL | 2 µg/mL | CC(C)[C@@H]1NC(=O)[C@@](C)(NC(=O)[C@H](C)NC(=O)[C@H](CN)NC(=O)CNC(=O)[C@H](Cc2ccccc2)NC(=O)[C@H](CCCCN)NC(=O)[C@H](CCCCN)NC(=O)[C@H](CCCCN)NC(=O)[C@H](CCCCN)NC(=O)[C@H](CCCCN)NC(=O)[C@]2(C)CCCC=CCCC[C@](C)(NC(=O)CN)C(=O)NCC(=O)N[C@@H](CCCCN)C(=O)N[C@@H](Cc3ccccc3)C(=O)N2)CCCC=CCCC[C@@](C)(C(=O)N[C@@H](C)C(=O)N[C@@H](CCCCN)C(=O)N[C@@H](CCCCN)C(N)=O)NC(=O)[C@H](CCC(=O)O)NC(=O)CNC1=O [compound 50] (H-G[S5]GKF[S5]KKKKKFG[Dap]A[S5]VGE[S5]AKK-NH2; staple 2-6, 16-20) |  |
